Experimental data reported in patent US7906480B2, “Use of a parathyroid hormone peptide analogs for the treatment of vaginal atrophy” (priority 2002, dated 2011).
“Also recorded” adds a separate entry of the source. Read-outs that look alike come from different tables or passages of the source. No end group written: not given here.

How the values were obtained:
PTHPTHrP receptor [1] = biological target: T1, PTHPTHrP receptor (Homo sapiens, UniProt Q03431); details: cited from earlier work
T1 sequence (Q03431 27-593): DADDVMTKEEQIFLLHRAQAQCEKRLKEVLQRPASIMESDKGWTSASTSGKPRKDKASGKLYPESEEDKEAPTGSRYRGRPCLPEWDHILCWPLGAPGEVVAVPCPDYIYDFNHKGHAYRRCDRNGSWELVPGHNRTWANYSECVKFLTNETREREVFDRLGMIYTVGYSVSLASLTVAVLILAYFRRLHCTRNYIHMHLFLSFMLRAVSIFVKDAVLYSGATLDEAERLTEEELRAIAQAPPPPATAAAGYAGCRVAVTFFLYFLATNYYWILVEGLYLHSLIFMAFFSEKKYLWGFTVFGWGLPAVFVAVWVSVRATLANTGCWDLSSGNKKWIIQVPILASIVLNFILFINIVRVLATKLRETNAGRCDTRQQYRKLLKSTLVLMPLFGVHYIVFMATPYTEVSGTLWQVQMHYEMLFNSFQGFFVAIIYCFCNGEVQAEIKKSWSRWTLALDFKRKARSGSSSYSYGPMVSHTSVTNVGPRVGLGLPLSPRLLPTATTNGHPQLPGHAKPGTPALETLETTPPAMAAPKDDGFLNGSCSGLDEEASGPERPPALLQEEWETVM

[2] = system: cultured human keratinocytes; details: in vitro, previously shown in U.S. Pat. Nos. 5,527,772, 5,840,690 and 6,066,618; cited from earlier work
hPTH-2 receptor = hPTH-2 receptor (Homo sapiens, UniProt P49190); details: cited from earlier work
Chain of hPTH-2 receptor (P49190 25-550): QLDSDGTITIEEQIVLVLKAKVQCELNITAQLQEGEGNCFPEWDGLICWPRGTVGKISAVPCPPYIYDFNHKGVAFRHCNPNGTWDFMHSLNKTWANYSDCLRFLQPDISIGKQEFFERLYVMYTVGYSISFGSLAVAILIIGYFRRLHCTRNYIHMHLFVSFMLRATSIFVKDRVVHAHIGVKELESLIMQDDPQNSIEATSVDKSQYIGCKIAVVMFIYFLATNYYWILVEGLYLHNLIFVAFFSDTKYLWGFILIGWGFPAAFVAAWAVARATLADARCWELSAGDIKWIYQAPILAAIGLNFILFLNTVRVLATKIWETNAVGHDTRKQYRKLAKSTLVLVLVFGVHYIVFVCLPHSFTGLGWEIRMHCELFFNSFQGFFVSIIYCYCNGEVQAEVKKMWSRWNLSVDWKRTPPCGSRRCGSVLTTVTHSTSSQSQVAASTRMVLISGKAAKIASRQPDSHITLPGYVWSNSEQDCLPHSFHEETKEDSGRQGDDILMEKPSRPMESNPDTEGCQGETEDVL

mouse vaginal cells = experiment: tritiated thymidine incorporation into DNA of cultured mouse vaginal epithelial cells; type: cell-based, SKH-1 hairless mice
Description: The vaginas from five SKH-1 hairless mice were harvested, washed, and placed in trypsin 1× overnight. From each, the vaginal epithelium was peeled and rinsed in 0.02% EDTA solution and centrifuged to isolate the cells. The cells were rinsed in media, centrifuged, and plated into a 100 mm dish atop a layer of irradiated 3T3 cells containing media as is used for keratinocytes and described above. The cells were grown and passed into 24 well plates for tritiated thymidine incorporation as described above. Cells were treated with either a placebo vehicle or with 1×10^−7 M PTH(1-34) for 24 hours. The cells were harvested and the DNA was extracted and counted using a beta liquid scintillation counter. The amount of tritiated thymidine recovered in the DNA is a measure of DNA synthesis in the cells and is synonymous with cellular proliferative activity.

PTHPTHrP receptor [3] = biological target: T1, PTHPTHrP receptor; details: cited from earlier work; remark: listed apart in the source

In the case of “[Leu^11,D-Trp^12]hPTHrP(7-34),Amide [[Leu^11,D-Trp^12]hPTHrP(7-34)NH2]”, the “antagonist function at the hPTH/PTHrP receptor” value (PTHPTHrP receptor [1]) is listed as “highly potent antagonist”.
For “[Nle^8,18,Tyr^34]bPTH(7-34),Amide (FXHNLGKHLSSXERVEWLRKKLQDVHNY; norleucine at 8,18; C-terminal amide; Bovine; VARIANT (2)..(12) Xaa = Nle) [[Nle^8,18, Tyr^34]bPTH (7-34)NH2]”, the “block of inhibition of proliferation or stimulation of differentiation by hPTH(1-34), hPTHrP(1-34), or 1,25(OH)2D3” value [2] is listed as “block the inhibition of proliferation or stimulation of differentiation”.
In the case of “[Trp^23]hPTHrP(1-36) (AVSEHQLLHDKGKSIQDLRRRFWLHHLIAEIHTAEI; listed as Homo sapiens) [[Trp^23]hPTHrP (1-36)]”, the “antagonist function at the PTH-2 receptor” value (hPTH-2 receptor) is listed as “hPTH-2 receptor antagonist” and the “antagonist function at the PTH-2 receptor” value (hPTH-2 receptor; listed as [Trp^23]PTHrP(1-36)) is listed as “particularly potent antagonist”.
For “[Tyr^34]bPTH(7-34),Amide (FMHNLGKHLSSMERVEWLRKKLQDVHNY-NH2) [[Tyr^34]bPTH (7-34)NH2]”, the “block of inhibition of proliferation or stimulation of differentiation by hPTH(1-34), hPTHrP(1-34), or 1,25(OH)2D3” value [2] is listed as “block the inhibition of proliferation or stimulation of differentiation”.
In the case of “bPTHrP(5-36) (HQLLHDKGKSIQDLRRRFFLHHLIAEIHTAEI; listed as Homo sapiens) [printed only in b18]”, the “block of inhibition of proliferation or stimulation of differentiation by hPTH(1-34), hPTHrP(1-34), or 1,25(OH)2D3” value [2] is given as “block the inhibition of proliferation or stimulation of differentiation”.
For “hPTH(1-34) (SVSEIQLMHNLGKHLNSMERVEWLRKKLQDVHNF; listed as Homo sapiens)”, the “incorporation of tritiated thymidine into the DNA (DNA synthesis)” value (mouse vaginal cells; 1×10^−7 M for 24 hours, versus placebo vehicle, FIG. 1) was “increased” and the vaginal cell growth (mouse vaginal cells; conclusion from FIG. 1, mouse vaginal cells in vitro) was “can stimulate vaginal cell growth; also recorded: can stimulate vaginal cell-growth”.
In the case of “hPTH(5-34) (IQLMHNLGKHLNSMERVEWLRKKLQDVHNF; listed as Homo sapiens)”, the “block of inhibition of proliferation or stimulation of differentiation by hPTH(1-34), hPTHrP(1-34), or 1,25(OH)2D3” value [2] is listed as “block the inhibition of proliferation or stimulation of differentiation”.
In the case of “hPTH(5-36) (IQLMHNLGKHLNSMERVEWLRKKLQDVHNFVA; listed as Homo sapiens)”, the “block of inhibition of proliferation or stimulation of differentiation by hPTH(1-34), hPTHrP(1-34), or 1,25(OH)2D3” value [2] is listed as “block the inhibition of proliferation or stimulation of differentiation”.
In the case of “hPTH(7-31) (LMHNLGKHLNSMERVEWLRKKLQDV; listed as Homo sapiens)”, the “block of inhibition of proliferation or stimulation of differentiation by hPTH(1-34), hPTHrP(1-34), or 1,25(OH)2D3” value [2] is listed as “block the inhibition of proliferation or stimulation of differentiation”.
In the case of “hPTH(15-34) (LNSMERVEWLRKKLQDVHNF; listed as Homo sapiens)”, the “block of binding of hPTH(1-34) or hPTHrP(1-34) to the PTHPTHrP receptor” value (PTHPTHrP receptor [3]) is listed as “can block the binding”.
For hPTHrP(5-34), the “block of inhibition of proliferation or stimulation of differentiation by hPTH(1-34), hPTHrP(1-34), or 1,25(OH)2D3” value [2] is listed as “block the inhibition of proliferation or stimulation of differentiation”.
In the case of “hPTHrP(7-31) (LLHDKGKSIQDLRRRFFLHHLIAEI; listed as Homo sapiens)”, the “block of inhibition of proliferation or stimulation of differentiation by hPTH(1-34), hPTHrP(1-34), or 1,25(OH)2D3” value [2] is listed as “block the inhibition of proliferation or stimulation of differentiation”.
In the case of “hPTHrP(15-34) (IQDLRRRFFLHHLIAEIHTA; listed as Homo sapiens)”, the “block of binding of hPTH(1-34) or hPTHrP(1-34) to the PTHPTHrP receptor” value (PTHPTHrP receptor [3]) is listed as “can block the binding”.
